Inconclusive results and toxic doses are left out.

In this test the test system is L1210 leukemia ip in BDF1 mice, survival T/C. In words: NCI In Vivo Anticancer Drug Screen. Data for tumor model L1210 Leukemia (intraperitoneal) in B6D2F1 (BDF1) mice. Particulars: endpoint: mean survival time, higher = longer survival. An outline of the steps:
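Transplanted-tumor mice were given test agent; controls received vehicle only. Survival readings from the two groups were divided (treated over control).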

The mark [1] stands for this setting: dose: 100.0 mg/kg/injection, schedule: Q01DX009 (ip), vehicle: saline.
Where [2] appears, read: dose: 100.0 mg/kg/injection, schedule: Q04DX003 (ip), vehicle: saline.
The mark [3] stands for this setting: dose: 150.0 mg/kg/injection, schedule: Q04DX003 (ip), vehicle: saline.
[4] abbreviates: dose: 200.0 mg/kg/injection, schedule: Q01DX009 (ip), vehicle: saline.
Where [5] appears, read: dose: 200.0 mg/kg/injection, schedule: Q04DX003 (ip), vehicle: saline.
[6] abbreviates: dose: 400.0 mg/kg/injection, schedule: Q01DX009 (ip), vehicle: saline.
Where [7] appears, read: dose: 400.0 mg/kg/injection, schedule: Q04DX003 (ip), vehicle: saline.
Where [8] appears, read: dose: 100.0 mg/kg/injection, schedule: Q04DX003 (ip), vehicle: Klucel (hydroxypropylcellulose) (HPC).
The mark [9] stands for this setting: dose: 200.0 mg/kg/injection, schedule: Q04DX003 (ip), vehicle: Klucel (hydroxypropylcellulose) (HPC).
[10] abbreviates: dose: 400.0 mg/kg/injection, schedule: Q04DX003 (ip), vehicle: Klucel (hydroxypropylcellulose) (HPC).
The mark [11] stands for this setting: dose: 100.0 mg/kg/injection, schedule: Q01DX001 (ip), vehicle: saline.
Where [12] appears, read: dose: 200.0 mg/kg/injection, schedule: Q01DX001 (ip), vehicle: saline.
Setting [13] is: dose: 400.0 mg/kg/injection, schedule: Q01DX001 (ip), vehicle: saline.
The mark [14] stands for this setting: dose: 50.0 mg/kg/injection, schedule: Q01DX009 (ip), vehicle: saline.
Setting [15] is: dose: 100.0 mg/kg/injection, schedule: Q01DX009 (ip), vehicle: Klucel (hydroxypropylcellulose) (HPC).
[16] abbreviates: dose: 200.0 mg/kg/injection, schedule: Q01DX009 (ip), vehicle: Klucel (hydroxypropylcellulose) (HPC).
The mark [17] stands for this setting: dose: 400.0 mg/kg/injection, schedule: Q01DX009 (ip), vehicle: Klucel (hydroxypropylcellulose) (HPC).

For `C1=C[P+](c2ccccc2)(c2ccccc2)CC[P+]1(c1ccccc1)c1ccccc1`, the T/C (dose: 75.0 mg/kg/injection, schedule: Q01DX001 (ip), vehicle: other) is 98 % of control and the T/C (dose: 150.0 mg/kg/injection, schedule: Q01DX001 (ip), vehicle: other) is 95 % of control.
In the case of `O=C1N(CO)C2C(N1CO)N(CO)C(=O)N2CO` (stereo not given), the T/C is 100 % of control (dose: 44.0 mg/kg/injection, schedule: Q04DX003 (ip), vehicle: saline); 103 % of control (dose: 66.0 mg/kg/injection, schedule: Q04DX003 (ip), vehicle: saline); 118 % of control under setting [1]; 103 % of control under setting [2]; 102 % of control under setting [3]; 113 % of control under setting [4]. Besides, the T/C runs as follows: under setting [5], 115 % of control; under setting [6], 116 % of control; under setting [7], 114 % of control.
As to `O=CC(CO)C(C=O)n1ncc2ccccc21` (stereo not given), the T/C (dose: 50.0 mg/kg/injection, schedule: Q01DX005 (ip), vehicle: water) is 112 % of control.
`COCCN(/N=N/c1nc[nH]c1C(N)=O)C(C)(C)C`: the T/C was 100 % of control (dose: 50.0 mg/kg/injection, schedule: Q01DX001 (ip), vehicle: water); 101 % of control (dose: 50.0 mg/kg/injection, schedule: Q04DX003 (ip), vehicle: water); 97 % of control (dose: 100.0 mg/kg/injection, schedule: Q01DX001 (ip), vehicle: water); 101 % of control (dose: 100.0 mg/kg/injection, schedule: Q04DX003 (ip), vehicle: water); 92 % of control (dose: 200.0 mg/kg/injection, schedule: Q01DX001 (ip), vehicle: water); 102 % of control (dose: 200.0 mg/kg/injection, schedule: Q04DX003 (ip), vehicle: water). Also, the T/C is, setting by setting: (dose: 400.0 mg/kg/injection, schedule: Q01DX001 (ip), vehicle: water) 97 % of control; (dose: 400.0 mg/kg/injection, schedule: Q04DX003 (ip), vehicle: water) 96 % of control.
Consider `Oc1ccc2ccccc2c1C=Nc1cccc(Cl)c1`, for which the T/C reads like this: (dose: 50.0 mg/kg/injection, schedule: Q04DX003 (ip), vehicle: Klucel (hydroxypropylcellulose) (HPC)) 103 % of control; (dose: 100.0 mg/kg/injection, schedule: Q01DX001 (ip), vehicle: Klucel (hydroxypropylcellulose) (HPC)) 113 % of control; under setting [8], 101 % of control; (dose: 200.0 mg/kg/injection, schedule: Q01DX001 (ip), vehicle: Klucel (hydroxypropylcellulose) (HPC)) 107 % of control; under setting [9], 98 % of control; (dose: 400.0 mg/kg/injection, schedule: Q01DX001 (ip), vehicle: Klucel (hydroxypropylcellulose) (HPC)) 101 % of control.
On to `CCOC(=O)c1cnc(SC)nc1N/N=C/c1ccccc1`, for which the T/C is, setting by setting: under setting [8], 100 % of control; under setting [9], 101 % of control; under setting [10], 103 % of control.
Turning to `CCOC(=O)CC1CCN(C(=O)c2ccccc2)C(Cc2c[nH]c3ccccc23)C1=O` (stereo not given), the T/C was 95 % of control under setting [11], 94 % of control under setting [12] and 94 % of control under setting [13].
As for `Nc1nc(N)c(N=Nc2ccc(S(N)(=O)=O)cc2)cc1N=Nc1ccccc1`, the T/C is 94 % of control (dose: 100.0 mg/kg/injection, schedule: Q01DX001 (ip), vehicle: carboxymethylcellulose (CMC)); 94 % of control (dose: 200.0 mg/kg/injection, schedule: Q01DX001 (ip), vehicle: carboxymethylcellulose (CMC)); 100 % of control (dose: 400.0 mg/kg/injection, schedule: Q01DX001 (ip), vehicle: carboxymethylcellulose (CMC)).
Turning to `CSC(N)=Nc1cccc2c1CCCC2`, the T/C reads like this: under setting [14], 98 % of control; (dose: 50.0 mg/kg/injection, schedule: Q04DX003 (ip), vehicle: saline) 102 % of control; under setting [1], 98 % of control; under setting [2], 88 % of control; under setting [5], 92 % of control.
For `COc1cc(C(=O)O)c(Br)cc1C`, the T/C is, setting by setting: under setting [15], 111 % of control; under setting [8], 103 % of control; under setting [16], 103 % of control; under setting [9], 93 % of control; under setting [17], 98 % of control; under setting [10], 95 % of control.
In the case of `C(=C1/CC2CCC1C2)/c1ccccc1` (stereo not given), the T/C is 98 % of control under setting [11]; 93 % of control under setting [2]; 103 % of control under setting [12]; 93 % of control under setting [5]; 101 % of control under setting [13]; 89 % of control under setting [7].
On to `Cc1cccc(C)c1NC(=O)Nc1cccc(Cl)c1`, for which the T/C under setting [15] is 93 % of control; the T/C under setting [8] was 94 % of control; the T/C under setting [16] was 93 % of control; the T/C under setting [9] is 89 % of control; the T/C under setting [17] was 92 % of control; the T/C under setting [10] is 89 % of control.
`CC(C)(C)NC(=O)NCc1ccco1`: the T/C (dose: 12.5 mg/kg/injection, schedule: Q01DX009 (ip), vehicle: Klucel (hydroxypropylcellulose) (HPC)) is 98 % of control; the T/C (dose: 25.0 mg/kg/injection, schedule: Q01DX009 (ip), vehicle: Klucel (hydroxypropylcellulose) (HPC)) is 98 % of control; the T/C (dose: 50.0 mg/kg/injection, schedule: Q01DX009 (ip), vehicle: Klucel (hydroxypropylcellulose) (HPC)) is 101 % of control.
On to `CC1(C)N=C(N)N=C(N)N1c1ccc(CNC(=O)Nc2ccc(S(=O)(=O)F)cc2)c(Cl)c1`, for which the T/C reads like this: (dose: 45.0 mg/kg/injection, schedule: Q01DX009 (ip), vehicle: saline) 111 % of control; (dose: 67.0 mg/kg/injection, schedule: Q01DX009 (ip), vehicle: saline) 120 % of control.
`C(=C/c1ccccc1)/C=N/Nc1ccccc1`: the T/C runs as follows: under setting [8], 98 % of control; under setting [9], 95 % of control; under setting [10], 92 % of control.
Regarding `CN1CCN(C2CCCc3ccccc3C2O)CC1` (stereo not given), the T/C by setting is: (dose: 5.0 mg/kg/injection, schedule: Q01DX001 (ip), vehicle: saline) 109 % of control; (dose: 10.0 mg/kg/injection, schedule: Q01DX001 (ip), vehicle: saline) 105 % of control; (dose: 20.0 mg/kg/injection, schedule: Q01DX001 (ip), vehicle: saline) 103 % of control; (dose: 40.0 mg/kg/injection, schedule: Q01DX001 (ip), vehicle: saline) 103 % of control.
As for `O=NN(CCF)C(=O)Nc1c[nH]c(=O)[nH]c1=O`, the T/C (dose: 20.0 mg/kg/injection, schedule: Q01DX001 (ip), vehicle: carboxymethylcellulose (CMC)) is 178 % of control.
`Cn1c(NN)cc(=O)n(C)c1=O`: the T/C is, setting by setting: (dose: 75.0 mg/kg/injection, schedule: Q04DX003 (ip), vehicle: saline) 107 % of control; under setting [3], 94 % of control; (dose: 300.0 mg/kg/injection, schedule: Q04DX003 (ip), vehicle: saline) 104 % of control.
In the case of `O=C1NCCc2cc3c(cc21)OCO3`, the T/C by setting is: (dose: 25.0 mg/kg/injection, schedule: Q04DX002 (ip), vehicle: saline) 97 % of control; (dose: 50.0 mg/kg/injection, schedule: Q04DX002 (ip), vehicle: saline) 106 % of control; (dose: 100.0 mg/kg/injection, schedule: Q04DX002 (ip), vehicle: saline) 103 % of control.
For `NC(=O)Cc1cc(=O)[nH]c(=O)[nH]1`, the T/C is, setting by setting: under setting [14], 107 % of control; (dose: 50.0 mg/kg/injection, schedule: Q04DX003 (ip), vehicle: saline with Tween-80) 96 % of control; under setting [1], 102 % of control; (dose: 100.0 mg/kg/injection, schedule: Q04DX003 (ip), vehicle: saline with Tween-80) 97 % of control; under setting [4], 100 % of control; (dose: 200.0 mg/kg/injection, schedule: Q04DX003 (ip), vehicle: saline with Tween-80) 94 % of control. Besides, the T/C is 97 % of control under setting [6] and 91 % of control (dose: 400.0 mg/kg/injection, schedule: Q04DX003 (ip), vehicle: saline with Tween-80).

(Values after PubChem BioAssay AID248 (DTP/NCI, 2004).)
